Experiment [1] addresses T1, Hepatocyte growth factor receptor (Homo sapiens, UniProt P08581, D1228V). Kind of experiment: Inhibition of his-tagged c-MET D1228V mutant (1050 to 1346 residues) (unknown origin) in human NCI-H1993 cells by HTRF analysis. Type of experiment: cell-based. For orientation: Time-resolved FRET reads energy transfer from a long-lived donor to a nearby acceptor.
Experiment [2] concerns the target T1, Hepatocyte growth factor receptor. Kind of experiment: Inhibition of his-tagged c-MET D1228V mutant (1050 to 1346 residues) (unknown origin) by ADP-glo assay.
Experiment [3] has as its target T2, Hepatocyte growth factor receptor (Homo sapiens, UniProt P08581). Kind of experiment: Inhibition of his-tagged wild type c-MET (1050 to 1346 residues) (unknown origin) by ADP-glo assay. (In general: ADP-Glo first removes unused ATP, then detects ADP through luciferase.)
For experiment [4], the target named is T1, Hepatocyte growth factor receptor. Description: Binding affinity to his-tagged c-MET D1228V mutant (1050 to 1346 residues) (unknown origin) assessed as dissociation constant by surface plasmon resonance analysis. On the technique in general: SPR reads the build-up and loss of mass on a sensor chip optically.
Experiment [5] concerns the target T2, Hepatocyte growth factor receptor. Kind of experiment: Inhibition of his-tagged wild type c-MET (1050 to 1346 residues) (unknown origin) in human NCI-H1993 cells by HTRF analysis. In kind it is cell-based.
The target is the same in experiment [6]. Description: Binding affinity to his-tagged wild type c-MET (1050 to 1346 residues) (unknown origin) by surface plasmon resonance analysis.
Experiment [7] shares this target. Description: Inhibition of wild type c-MET (unknown origin ) at 10 uM relative to control.
In experiment [8] the target is TRAF2 and NCK-interacting protein kinase (Homo sapiens) (UniProt Q9UKE5). Description: Inhibition of TNIK (unknown origin) at 10 uM relative to control.
Experiment [9] has as its target Calcium/calmodulin-dependent protein kinase type 1 (Homo sapiens) (UniProt Q14012). Kind of experiment: Inhibition of CAMK1 (unknown origin) at 10 uM relative to control.
In experiment [10] the target is T2, Hepatocyte growth factor receptor. Description: Binding affinity to his-tagged c-MET (1050 to 1346 residues) (unknown origin) assessed as binding constant (Koff) by surface plasmon resonance analysis.
For experiment [11] the target is unchanged. Kind of experiment: Binding affinity to his-tagged c-MET (1050 to 1346 residues) (unknown origin) assessed as binding constant (Kon) by surface plasmon resonance analysis.

Chain of TRAF2 and NCK-interacting protein kinase (Homo sapiens) (Q9UKE5 whole entry, looked up): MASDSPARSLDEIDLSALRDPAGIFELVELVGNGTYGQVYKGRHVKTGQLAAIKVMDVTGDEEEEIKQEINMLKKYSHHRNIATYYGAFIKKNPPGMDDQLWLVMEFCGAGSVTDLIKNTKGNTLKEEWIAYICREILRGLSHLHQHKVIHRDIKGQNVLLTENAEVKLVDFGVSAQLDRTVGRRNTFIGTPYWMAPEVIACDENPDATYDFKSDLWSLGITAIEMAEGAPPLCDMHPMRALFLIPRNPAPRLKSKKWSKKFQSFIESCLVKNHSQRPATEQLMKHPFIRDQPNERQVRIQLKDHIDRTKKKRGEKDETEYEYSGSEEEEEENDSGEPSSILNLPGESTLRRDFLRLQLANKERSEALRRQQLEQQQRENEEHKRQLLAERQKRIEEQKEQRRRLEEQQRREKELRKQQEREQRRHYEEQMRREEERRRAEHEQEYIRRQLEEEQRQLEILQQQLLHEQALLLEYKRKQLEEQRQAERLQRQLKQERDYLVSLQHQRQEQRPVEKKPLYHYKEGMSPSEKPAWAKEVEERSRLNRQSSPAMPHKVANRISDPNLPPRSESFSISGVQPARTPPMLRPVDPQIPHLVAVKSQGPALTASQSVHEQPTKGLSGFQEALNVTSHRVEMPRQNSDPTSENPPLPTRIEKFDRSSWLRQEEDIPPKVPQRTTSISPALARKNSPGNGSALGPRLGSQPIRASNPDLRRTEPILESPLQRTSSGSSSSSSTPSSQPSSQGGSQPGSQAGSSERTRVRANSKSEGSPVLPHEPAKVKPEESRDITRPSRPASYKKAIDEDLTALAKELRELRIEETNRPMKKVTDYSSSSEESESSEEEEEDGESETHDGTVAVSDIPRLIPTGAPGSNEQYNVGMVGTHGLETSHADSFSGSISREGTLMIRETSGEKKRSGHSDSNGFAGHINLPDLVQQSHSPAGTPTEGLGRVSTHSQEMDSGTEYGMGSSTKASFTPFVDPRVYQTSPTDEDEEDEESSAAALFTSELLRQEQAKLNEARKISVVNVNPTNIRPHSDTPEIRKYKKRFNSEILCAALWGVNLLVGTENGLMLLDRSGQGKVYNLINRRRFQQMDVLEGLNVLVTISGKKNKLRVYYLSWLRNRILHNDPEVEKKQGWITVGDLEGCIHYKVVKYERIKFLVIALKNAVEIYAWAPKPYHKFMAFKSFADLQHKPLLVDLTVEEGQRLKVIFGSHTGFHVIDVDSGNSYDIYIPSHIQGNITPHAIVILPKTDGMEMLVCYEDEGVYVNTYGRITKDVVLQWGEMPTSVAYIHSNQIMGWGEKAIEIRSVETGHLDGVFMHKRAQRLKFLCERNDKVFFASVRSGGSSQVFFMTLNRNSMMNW
Chain of Calcium/calmodulin-dependent protein kinase type 1 (Homo sapiens) (Q14012 whole entry, looked up, the tested form may be a part): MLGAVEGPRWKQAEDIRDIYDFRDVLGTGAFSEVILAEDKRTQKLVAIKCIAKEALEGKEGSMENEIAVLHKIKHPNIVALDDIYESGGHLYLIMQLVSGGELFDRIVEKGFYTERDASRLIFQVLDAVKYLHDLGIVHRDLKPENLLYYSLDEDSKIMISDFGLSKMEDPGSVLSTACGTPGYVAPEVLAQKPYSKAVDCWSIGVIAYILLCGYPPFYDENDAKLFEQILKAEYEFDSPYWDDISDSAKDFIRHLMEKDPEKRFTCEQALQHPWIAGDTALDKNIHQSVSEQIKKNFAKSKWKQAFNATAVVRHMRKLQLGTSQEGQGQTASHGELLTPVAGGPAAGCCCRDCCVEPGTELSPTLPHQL

With `Cc1ccc(-c2ccc3c(C)n[nH]c3c2)c2c1[C@@H](N(C)C(=O)c1ncccc1C(F)F)CCC2`, the IC50 (usually the concentration that gives 50% inhibition) in experiment [1] (nci-h1993) was “Not Active”; in experiment [2], 11 µM; in experiment [3], 4.94 µM; in [5] (nci-h1993) it was “Not Active”. Besides, the Kd (in general, the free concentration of one partner at which half of the binding sites on the other are occupied at equilibrium, for simple one-to-one binding) in experiment [4] was determined as 5.3 µM; in experiment [6] it was 2.8 µM.
For the molecule `Cc1ccc(-c2ccc3c(C)n[nH]c3c2)c2c1[C@H](N(C)C(=O)c1ncccc1C(F)F)CCC2`, the IC50 in experiment [1] (read-out: IC50) was 12 µM; in experiment [2], 0.09 µM; in experiment [3], 0.9 µM; in [5] (read-out: IC50), over 30 µM. Besides, the Kd in experiment [4] was 0.65 µM; in experiment [6], 7.2 µM. In addition, the inhibition in experiment [7], in experiment [8] and in [9] was over 70% each time.
For `Cc1ccc(-c2ccc3c(C)n[nH]c3c2)c2c1C(N(C)C(=O)c1ncccc1C(F)F)CCC2` (racemic), the Kd in [4] was 1.4 µM; in [6] it was over 20 µM. In addition, in experiment [10], the koff (in general, a measure of how fast the partners let go of each other) was determined as 0.0053 s⁻¹. For the same molecule, in experiment [11], the K was 3.7 10^3/M/s.

(Values after ChEMBL document CHEMBL5236567, “Discovery of a selective c-MET inhibitor with a novel binding mode” (Bioorg Med Chem Lett, 2022).)
